# Measured values from patent publication US11400132B2 (NOVALIQ GMBH, priority 2016, dated 2022).
# Assay: Water solubility / residual water in 1-perfluorobutyl-pentane
# Type: physicochemical
# Conditions: based on weight of 1-perfluorobutylpentane
# Description: The predominant contribution to residual water content in the composition can be attributed to water sorption or association with ciclosporin (e.g. not limited to, but for example derived from manufacturing process, or its transport and storage).
# The 1-perfluorobutyl-pentane as featured in any of the compositions or methods described herein is preferably essentially free of water. In such case, the presence of residual water in the composition according to the invention is derived from the ciclosporin or optionally, if present, one or more excipients that is functionally not a co-solvent.
smiles,measurement,value
"CCCCCC(F)(F)C(F)(F)C(F)(F)C(F)(F)F [F4H5, 1-perfluorobutyl-pentane]",water solubility in 1-perfluorobutylpentane,less than 1.20×10^−5 wt %
